# Legend:
# male CD1 mice [1] = experiment: In vivo predictive anesthetic test (loss of righting reflex)
# Experimental: c) In Vivo Determination of Predictive Anesthetic Activity
# The in vivo effects of these compounds were assessed by a predictive anesthetic test in mice as the loss of righting reflex (Kralic et al., Neuropharmacology, 43(4), 685-689 2002; Belelli et al., Neuropharmacology, 45, 57-71, 2003).
# Groups of 5-8 male CD1 mice, weighing 22-26 g at the time of test, were used. The test compounds were administered at 98.0 μmol/kg by mean of intraperitoneal injection. Compounds were suspended in 0.25% agar with one drop of Tween in a volume of 10 mL/kg.
# α1-GABAA receptor = experiment: Ligand-binding assay, radiolabeled flumazenil competition, cerebellum membranes; settings: rat cerebellum membranes, radiolabeled flumazenil 1 nM
# Experimental: (§1) a) Ligand-binding Assays. Determination of the Affinity of Test Compounds for α1- and α2-GABAA Receptor
# (§2) Male Sprague-Dawley rats weighing 200-250 g at the time of experiment were used. After decapitation of the animal, the cerebellum (tissue that mostly contains α1-GABAA receptor) and spinal cord (tissue that mostly contains α2-GABAA receptor) were removed. The membranes were prepared according to the method by J. Lameh et al. (Prog. Neuro-Psychopharmacol. Biol. Psychiatry, 24, 979-991, 2000) and H. Noguchi et al. (Eur J Pharm, 434, 21-28, 2002) with slight modifications. Once the tissues weighed, they were suspended in 50 mM Tris.HCl (pH 7.4), 1:40 (v/v), or sucrose 0.32 M in the case of spinal cord, homogenized and then centrifuged at 20000 g for 10 minutes at 7° C. The resulting pellet was resuspended under the same conditions and centrifuged again. The pellet was finally resuspended on a minimum volume and kept at −80° C. overnight. A slight modification was used in the case of spinal cord at the first centrifugation step. Centrifugation speed was at 1000 g and the supernatant was collected instead of discarded as in cerebellum. Then, supernatant was centrifuged at 20000 g and resuspended twice more under the same conditions described above for cerebellum. On the next day, the process was repeated until the final pellet was resuspended at a ratio of 1:10 (v/v) in the case of cerebellum and at a ratio of 1:5 (v/v) in the case of spinal cord.
# (§3) Affinity was determined by competitive tests using radiolabeled flumazenil as ligand. The tests were performed according to the methods described by S. Arbilla et al. (Eur. J. Pharmacol., 130, 257-263, 1986); and Y. Wu et al. (Eur. J. Pharmacol., 278, 125-132, 1995) using 96-well microtiter plates. The membranes containing the study receptors, flumazenil (radiolabeling at a final concentration of 1 nM) and ascending concentrations of test compounds (in a total volume of 230 μl in 50 mM [pH 7.4] Tris.HCl buffer) were incubated. Simultaneously, the membranes were only incubated with the radiolabeled flumazenil (total binding, 100%) and in the presence of an elevated concentration of unradiolabeled flumazenil (non-specific binding, % estimation of radiolabeled ligand). The reactions started on adding the radiolabeled ligand followed by incubation for 60 minutes at 4° C. At the end of the incubation period, 200 μl of reaction were transferred to a multiscreen plate (Millipore) and filtered using a vacuum manifold and then washed three times with cold test buffer. The multiscreen plates were equipped with a GF/B filter that retained the membranes containing the receptors and the radiolabeled ligand which had been bound to the receptors. After washing, the plates were left till dry. Once dried, scintillation liquid was added and left under stirring overnight. The next day the plates were counted using a Perkin-Elmer Microbeta scintillation counter.
# (§4) For analysis of the results the percentage of specific binding for every concentration of test compound was calculated as follows: specific binding−(X−N/T−N)×100 where, X: amount of bound ligand for every concentration of compound. T: total binding, maximum amount bound to the radiolabeled ligand. N: non-specific binding, amount of radiolabeled ligand bound in a non-specific way irrespective of the receptor used.
# (§5) Every concentrations of compound were tested in triplicate and their mean values were used to determine the experimental values of % specific binding versus the concentration of compound. Affinity data are expressed as % inhibition at 10^−5M and 10^−7M concentrations.
# α2-GABAA receptor = experiment: Ligand-binding assay, radiolabeled flumazenil competition, spinal cord membranes; settings: rat spinal cord membranes, radiolabeled flumazenil 1 nM
# Experimental: as §1, §2, §3, §4, §5
# male CD1 mice [2] = experiment: In vivo predictive sedation-hypnosis test (traveled distance); settings: Mus musculus, ip, 0.5 h, traveled distance over 30 min versus control, read-out: % inhib motor activity; for inhibition in vivo at 0.98 µmol/kg: 0.98 μmol/kg intraperitoneal; for inhibition in vivo at 98 µmol/kg: 98.0 μmol/kg intraperitoneal
# Experimental: b) In Vivo Determination of Predictive Sedative-hypnotic Action
# The in vivo effects of these compounds were assessed by a predictive sedation-hypnosis test in mice (D. J. Sanger et al., Eur. J. Pharmacol., 313, 35-42, 1996; and G. Griebel et al., Psychopharmacology, 146, 205-213, 1999).
# Groups of 5-8 male CD1 mice, weighing 22-26 g at the time of test, were used. […] Compounds were suspended in 0.25% agar with one drop of Tween in a volume of 10 mL/kg. Control animals were given the vehicle alone. Using a Smart System (Panlab, S. L., Spain) the traveled distance in cm is recorded for each mouse at 5-minutes intervals during a period of 30 minutes after dosing. The inhibition percentage of traveled distance of treated animals versus control animals (the first 5 minutes were discarded) was calculated.
# GABAA receptor = target: T1, GABAA receptor; experiment: Comparative assay: IC50 values estimated from Cheng-Prusoff equation; assay type: binding, rat; settings: compounds of the invention; estimated from Ki by Cheng-Prusoff equation, radioligand 1 nM
# T1 construct: IC50; other: compounds of the invention; estimated from Ki by Cheng-Prusoff equation, radioligand 1 nM
# Experimental: All these compounds have in common that at 3-position, the imidazo[1,2-b]pyradizine ring have an acetamide. The rest of compounds disclosed in WO89/01333 are not structurally so related with the compounds of the present invention.
# The IC50 values were estimated from Cheng-Prusoff equation (Cheng Y. C. and Prusoff W. H.; Biochem. Pharmacol. 22, 3099-3108, 1973)
# [formula] where, Ki is determined for each one of the compounds of the invention as described above (section (a)). [RL*]: radiolabeled ligand concentration (1 nM). Kd: affinity constant (cerebellum 1.34 nM/spinal cord 1.19 nM)
SMILES,% of animals with loss of righting reflex (male CD1 mice [1]; double dose than compounds of the present invention) [%],"% inhib 10^−5 M, affinity for the α1-subunit of the GABAA receptor (α1-GABAA receptor) [%]","% inhib 10^−7 M, affinity for the α1-subunit of the GABAA receptor (α1-GABAA receptor) [%]","% inhib 10^−5 M, affinity for the α2-subunit of the GABAA receptor (α2-GABAA receptor) [%]","% inhib 10^−7 M, affinity for the α2-subunit of the GABAA receptor (α2-GABAA receptor) [%]",inhibition in vivo at 0.98 µmol/kg (male CD1 mice [2]) [%],inhibition in vivo at 98 µmol/kg (male CD1 mice [2]) [%],IC50 (GABAA receptor) [nM],% of animals with loss of righting reflex (male CD1 mice [1]; 98.0 μmol/kg intraperitoneal) [%]
"Cc1ccc(-c2nc3ccc(C)cn3c2CC(=O)N(C)C)cc1 [zolpidem, N,N,6-trimethyl-2-p-tolylimidazo[1,2-a]pyridine-3-acetamide, reference compound]",80,99.4,73.6,74.1,19.9,18.3,91.7,,
"Cc1ccc(-c2nc3ccc(C)nn3c2CC(=O)Nc2nncs2)cc1 [Example 98, 2-(6-Methyl-2-p-tolyl-imidazo[1,2-b]pyridazin-3-yl)-N-[1,3,4]thiadiazol-2-yl-acetamide]",,,,,,,,12.2,
"Cc1ccc(-c2nc3ccc(C)nn3c2CC(=O)Nc2cc(C)on2)cc1 [Example 95, N-(5-Methyl-isoxazol-3-yl)-2-(6-methyl-2-p-tolyl-imidazo[1,2-b]pyridazin-3-yl)-acetamide]",,,,,,,,17.1,
"Cc1ccc(-c2nc3ccc(C)nn3c2CC(=O)Nc2ccccn2)cc1 [Example 88, 2-(6-Methyl-2-p-tolyl-imidazo[1,2-b]pyridazin-3-yl)-N-pyridin-2-yl-acetamide]",,100.2,83.9,,,,88.5,13,
"CCCN(CC1CC1)C(=O)Cc1c(-c2ccc(C)cc2)nc2ccc(C)nn12 [Example 82, N-Cyclopropylmethyl-2-(6-methyl-2-p-tolyl-imidazo[1,2-b]pyridazin-3-yl)-N-propyl-acetamide]",,,,,,,94.2,,30
"CCCCN(CCCC)C(=O)Cc1c(-c2ccc(C)cc2)nc2ccc(Cl)nn12 [Example 3, N,N-Dibutyl-2-(6-chloro-2-p-tolyl-imidazo[1,2-b]pyridazin-3-yl)-acetamide]",,,,,,14.6,90.9,,100
"Cc1ccc(-c2nc3ccc(C)nn3c2CC(=O)Nc2cc(C)no2)cc1 [Example 97, N-(3-Methyl-isoxazol-5-yl)-2-(6-methyl-2-p-tolyl-imidazo[1,2-b]pyridazin-3-yl)-acetamide]",,,,,,,,14.6,
"CCCN(CCC)C(=O)Cc1c(-c2ccc(C)cc2)nc2ccc(Cl)nn12 [Example 2, 2-(6-Chloro-2-p-tolyl-imidazo[1,2-b]pyridazin-3-yl)-N,N-dipropyl-acetamide]",,,,,,38.4,96.7,,90
"CCOc1ccc2nc(-c3ccc(F)cc3)c(CC(=O)N(CC)CC)n2n1 [Example 66, 2-[6-Ethoxy-2-(4-fluoro-phenyl)-imidazo[1,2-b]pyridazin-3-yl]-N,N-diethyl-acetamide]",,98.3,50.4,79.4,7.8,,96,,
"Cc1ccc(-c2nc3ccc(C)nn3c2CC(=O)N(C(C)C)C(C)C)cc1 [Example 84, N,N-Diisopropyl-2-(6-methyl-2-p-tolyl-imidazo[1,2-b]pyridazin-3-yl)-acetamide]",,100.0,91.7,63.9,3.1,,90.8,,
"CCCN(CCC)C(=O)Cc1c(-c2ccc(OC)cc2)nc2ccc(C)nn12 [Example 71, 2-[2-(4-Methoxy-phenyl)-6-methyl-imidazo[1,2-b]pyridazin-3-yl]-N,N-dipropyl-acetamide]",,100.2,95.0,88.5,50.6,,96,,
